For the assay, the system named is hippocampal slices. Nature of the assay: Hippocampal slice cultures and induction of LTP (immunohistochemistry of LTP markers). On pCREB: key: ±: no change in the activation status; ++++: a qualitative maximal activation; ++: a half-maximum activation; −: a reduction of activation. On pMAPK: key: ±: no change in the activation status; ++++: a qualitative maximal activation; ++: a half-maximum activation; −: a reduction of activation. Particulars: for AMPA rec. (AMPA receptors on the cell surface): 15 min treatment; for pMAPK / pCREB: relative activation vs vehicle treated sister cultures, 15 min treatment after 48 h in culture. Type of assay: cell-based, Wistar rats. As to the method: Seven-day-old Wistar rats were decapitated using a guillotine. In less than 1 minute the skull was opened, the cerebral hemispheres were separated and transferred and both hippocampi were dissected and transferred into ice cold buffer containing 137 mM NaCl, 5 mM KCl, 0.85 mM Na2HPO4, 1.5 mM CaCl2, 0.66 mM KH2PO4, 0.28 mM MgSO4, 1 mM MgCl2, 2.7 mM NaHCO3, 1 mM Kynurenic acid and 0.6% D-glucose. Transversal hippocampal slices (typically 400 μm) were prepared using a vibrating blade microtome (VT1200S; Leica Microsystems (Schweiz) AG, Heerbrugg, Switzerland) in the same buffer. Hippocampal slices were individually placed on a membrane insert (Millicell Culture Plate Inserts, 0.4 μm) and cultivated at 35° C., 5% CO2, 95% humidity in a medium containing a 1:1 mixture of BME and MEM (both from Invitrogen) containing 25% heat-inactivated horse serum, 1× GlutaMAX, 1× Penicillin/Streptomycin, 0.6% glucose and 1 mM Kynurenic acid (Stoppini et al. 1991 J Neurosci Methods 37(2):173-82). […] Sarcosine (100 μM) and ALX5407 (20 nM) were used routinely as positive controls. […] After the treatments, sections were washed and fixed for immunohistochemistry. Markers of enhanced synaptic activity, normally associated with LTP, representing an in vitro (or ex vivo) model of learning and memory, were quantified (see Table 1, below). Table 1. Relative activation of synaptic markers after treatment with both extracts and some of their constituent compounds in comparison to sister cultures treated with buffer. The activation of any of these markers (or a combination thereof) is observed in classical LTP experiments. Data are compared to vehicle treated sections, which is set as 100%.

Setting [1] is: compared to vehicle treated sections set as 100%.
Where [2] appears, read: class symbol, vs vehicle treated sister cultures.

“Also recorded” adds a separate entry of the source. Like-named read-outs stand apart in the source and are kept apart here.

In the case of `Cc1ccc(C(C)C)cc1O` [Carvacrol], the “LTP-inducing activity (biochemical markers typical for LTP)” value (“LTP-inducing activity” below) is “lack the LTP-inducing activity” and the pMAPK result is “−”. Also, the “AMPA rec. (AMPA receptors on the cell surface)” value under setting [1] was 0-176%.

On to `NCC(=O)O` [Glycine], for which the pCREB result is recorded as “++” and the pMAPK entry is reported as “++”.

`C=CC(C)(O)CCC=C(C)C` (centres unmarked) [Linalool]: the “LTP-inducing activity” value was “lack the LTP-inducing activity”, the pCREB result was “±” and the pMAPK result is recorded as “±”. Further, under setting [2], the “AMPA rec. (AMPA receptors on the cell surface)” value is given as “±”.

For `Cc1ccc(C(C)C)cc1` [P-Cymene], the “LTP-inducing activity” value is “induce activation of biochemical pathway leading to LTP induction”, the pCREB entry is listed as “++” and the pMAPK entry is given as “++++”. Besides, the “AMPA rec. (AMPA receptors on the cell surface)” value under setting [2] is reported as “±”. Further, the “LTP-inducing activity” value (listed as p-cemene) is given as “induced biochemical markers typical for LTP”.

For `Cc1ccc(C(C)C)c(O)c1` [Thymol], the “LTP-inducing activity” value is reported as “induced biochemical markers typical for LTP; also recorded: induce activation of biochemical pathway leading to LTP induction” and the pCREB entry is on record as “++++”. Moreover, under setting [1], the “AMPA rec. (AMPA receptors on the cell surface)” value was 250-767%.

In the case of Caryophyllene, the “LTP-inducing activity” value is recorded as “lack the LTP-inducing activity”, the pCREB result was “±” and the pMAPK result is reported as “±”.
